The record followed here is ChEMBL document CHEMBL1201862, “PubChem BioAssay data set” (2004).

Several values for one entry are separate records, joined by “and”; a condition that tells them apart may be missing. Equal entries are not always repeated.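 A five-concentration, 48-hour dose response in 96-well plates underlies each endpoint, interpolated linearly between surrounding concentrations. GI50 marks 50% less growth.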 Activity calls are given as the source filed them. Cut-off read from the data, not from the text of the source: active = GI50 up to about 1.1 µM and inactive = higher. Non-standard residues stand in square brackets, D forms with d. Residues, ends and D or L forms follow the SMILES beside them. ξ: configuration not given here. *: point of attachment. dThr(3ξ) = CC(O)[C@@H](N)C(=O)O; dNMeL = CN[C@H](CC(C)C)C(=O)O; OBn = c1ccc(CO*)cc1; ξLac = CC(O)C(=O)O Bounds are passed on as bounds.

Among the test systems are IGROV-1; U-251; BT-549; OVCAR-4; RPMI-8226; SF-539; MDA-N; OVCAR-3; MCF7; M14; SK-OV-3; MDA-MB-231; HL-60; CCRF-CEM; Hs-578T; NCI/ADR-RES; SR; SK-MEL-2; NCI-H460; SK-MEL-28.
Holding throughout (assay): inhibition of tumour cell growth, NCI panel, 48 h

Take `O=C1C(c2c(O)[nH]c3ccc(I)cc23)=Nc2ccccc21`: the GI50 in the experiment on IGROV-1 is 0.0873 µM (active); in the experiment on U-251 it was 2.87 µM (inactive); in the experiment with BT-549 it was 7.53 µM (inactive); in the experiment on OVCAR-4, 4.06 µM (inactive); in the experiment with RPMI-8226, 9.51 µM (inactive); in the experiment on SF-539, 5.27 µM (inactive). In addition, the GI50 in the experiment on MDA-N is 6.68 µM (inactive); in the experiment on OVCAR-3 it was 5.71 µM (inactive); in the experiment on MCF7, 4.07 µM (inactive); with M14 it was 14 µM (inactive); in the experiment with SK-OV-3, 3.97 µM (inactive); in the experiment with MDA-MB-231, 2.65 µM (inactive). In addition, the GI50 is > 100 µM (inactive) in the experiment on HL-60; 39.6 µM (inactive) in the experiment on CCRF-CEM; 6.78 µM (inactive) in the experiment with Hs-578T; 6 µM (inactive) with NCI/ADR-RES; 10.8 µM (inactive) in the experiment on SR; 3.78 µM (inactive) in the experiment with SK-MEL-2. The GI50 is 10.4 µM (inactive) with NCI-H460 and 11.2 µM (inactive) with SK-MEL-28.

Turning to `CCCCC(=O)Nc1ccc2cc(C(=O)OC)c(Cl)nc2n1`, the GI50 with IGROV-1 is > 100 µM (inactive); in the experiment on U-251 it was 28.6 µM (inactive); in the experiment on BT-549 it was > 100 µM (inactive); in the experiment on OVCAR-4, > 100 µM (inactive); with RPMI-8226 it was 9.75 µM (inactive); in the experiment with SF-539, > 100 µM (inactive). Further, the GI50 was > 100 µM (inactive) in the experiment with MDA-N; 7.59 µM (inactive) in the experiment on OVCAR-3; 13.3 µM (inactive) in the experiment with MCF7; > 100 µM (inactive) in the experiment on M14; > 100 µM (inactive) in the experiment on SK-OV-3; > 100 µM (inactive) in the experiment on MDA-MB-231. Further, the GI50 is 2.58 µM (inactive) with HL-60; > 100 µM (inactive) with CCRF-CEM; 4.7 µM (inactive) in the experiment on Hs-578T; > 100 µM (inactive) in the experiment on NCI/ADR-RES; > 100 µM (inactive) in the experiment on SR; > 100 µM (inactive) in the experiment with SK-MEL-2. In addition, the GI50 is 44.2 µM (inactive) in the experiment on NCI-H460 and > 76.4 µM (inactive) in the experiment on SK-MEL-28.

Consider `NC(Cc1ccc(N(CCCl)CCCl)cc1)C(=O)NC(CCC(=O)O)C(=O)O` (stereo not given), for which the GI50 in the experiment with IGROV-1, with U-251, with BT-549, in the experiment on OVCAR-4, with RPMI-8226 and with SF-539 was > 100 µM (inactive) in each case. The GI50 with MDA-N, in the experiment on OVCAR-3, in the experiment with MCF7, in the experiment with M14, in the experiment on SK-OV-3 and with MDA-MB-231 was > 100 µM (inactive) throughout. The GI50 in the experiment on HL-60 is > 100 µM (inactive); with CCRF-CEM, > 100 µM (inactive); in the experiment on Hs-578T, > 100 µM (inactive); with NCI/ADR-RES, > 100 µM (inactive); with SR, 38 µM (inactive) and 60.4 µM (inactive); with SK-MEL-2, > 100 µM (inactive). The GI50 in the experiment with NCI-H460 and with SK-MEL-28 was > 100 µM (inactive) each time.

In the case of `COC(=O)CCCc1ccc2c(c1)CCC2`, the GI50 with IGROV-1, in the experiment on U-251, with BT-549, with OVCAR-4, in the experiment with RPMI-8226 and in the experiment on SF-539 was > 100 µM (inactive) each time. Besides, the GI50 in the experiment with MDA-N, in the experiment with OVCAR-3, in the experiment with MCF7, in the experiment with M14, with SK-OV-3 and with MDA-MB-231 was > 100 µM (inactive) throughout. Also, the GI50 in the experiment with HL-60, with CCRF-CEM, in the experiment on Hs-578T, with NCI/ADR-RES, with SR and in the experiment on SK-MEL-2 was > 100 µM (inactive) each time. In addition, the GI50 in the experiment with NCI-H460 and with SK-MEL-28 was > 100 µM (inactive) throughout.

As to `O=C(/C=C/C(=O)N1CCCC1)N1CCCC1`, the GI50 in the experiment on IGROV-1, with U-251, with BT-549, in the experiment on OVCAR-4, with RPMI-8226 and in the experiment on SF-539 was > 100 µM (inactive) in each case. Besides, the GI50 in the experiment on MDA-N, in the experiment on OVCAR-3, in the experiment with MCF7, in the experiment on M14, in the experiment with SK-OV-3 and in the experiment on MDA-MB-231 was > 100 µM (inactive) in each case. In addition, the GI50 with HL-60, with CCRF-CEM, in the experiment with Hs-578T, with NCI/ADR-RES, in the experiment on SR and with SK-MEL-2 was > 100 µM (inactive) in each case. The GI50 with NCI-H460 and in the experiment on SK-MEL-28 was > 100 µM (inactive) in each case.

With `CC(=O)c1cccc(NC2C(N)C(NC(=O)N(C)C)(C(C)O)C(C)(O)C2(O)COC(=O)c2c(C)cccc2O)c1` (stereo not given), the GI50 in the experiment with IGROV-1, with U-251, with BT-549, in the experiment with OVCAR-4, with RPMI-8226 and with SF-539 was < 0.001 µM (active) throughout. Moreover, the GI50 in the experiment on MDA-N is < 0.001 µM (active); in the experiment with OVCAR-3 it was 0.01 µM (active); in the experiment with MCF7, < 0.001 µM (active); with M14, 0.0118 µM (active); with SK-OV-3 it was < 0.001 µM (active); in the experiment on MDA-MB-231 it was 0.00187 µM (active). The GI50 in the experiment on HL-60 was < 0.001 µM (active); in the experiment with CCRF-CEM it was < 0.001 µM (active); with Hs-578T, < 0.001 µM (active); in the experiment on NCI/ADR-RES it was 0.0134 µM (active); in the experiment with SR, < 0.001 µM (active); with SK-MEL-2 it was 0.01 µM (active). Also, the GI50 in the experiment on NCI-H460 and with SK-MEL-28 was < 0.001 µM (active) each time.

Regarding `NCCCCNCCCNC(=O)CNC(=O)CC(O)C(N)CCCC(NC(=O)C(CN)NC(=O)C(O)CNC(=O)CC(N)c1ccc(O)cc1)C(=O)O` (stereo not given), the GI50 in the experiment on IGROV-1, in the experiment with U-251, with BT-549, in the experiment on OVCAR-4, with RPMI-8226 and with SF-539 was > 10 µM (inactive) in each case. Besides, the GI50 with MDA-N, with OVCAR-3, with MCF7, in the experiment with M14, with SK-OV-3 and in the experiment on MDA-MB-231 was > 10 µM (inactive) throughout. For the same molecule, the GI50 in the experiment on HL-60, in the experiment on CCRF-CEM, with Hs-578T, in the experiment on NCI/ADR-RES, in the experiment on SR and in the experiment with SK-MEL-2 was > 10 µM (inactive) throughout. Besides, the GI50 in the experiment on NCI-H460 and with SK-MEL-28 was > 10 µM (inactive) throughout.

Consider `CCOP(=O)(OCC)C(F)(F)CC1CCCCC1`, for which the GI50 in the experiment with IGROV-1, in the experiment with U-251, with BT-549, in the experiment on OVCAR-4, in the experiment with RPMI-8226 and in the experiment with SF-539 was > 10 µM (inactive) each time. Also, the GI50 in the experiment with MDA-N, in the experiment on OVCAR-3, with MCF7, in the experiment on M14, in the experiment with SK-OV-3 and in the experiment with MDA-MB-231 was > 10 µM (inactive) throughout. Further, the GI50 with HL-60, in the experiment with CCRF-CEM, in the experiment on Hs-578T, in the experiment with NCI/ADR-RES, in the experiment with SR and with SK-MEL-2 was > 10 µM (inactive) throughout. For the same molecule, the GI50 in the experiment on NCI-H460 and in the experiment with SK-MEL-28 was > 10 µM (inactive) throughout.

Turning to `O=S(=O)(O)c1cc(S(=O)(=O)O)c2c(/N=N/c3cccc4ccccc34)c(O)ccc2c1`, the GI50 in the experiment on IGROV-1, with U-251, with BT-549, in the experiment with OVCAR-4, with RPMI-8226 and in the experiment with SF-539 was > 100 µM (inactive) each time. Also, the GI50 in the experiment with MDA-N, in the experiment with OVCAR-3, in the experiment on MCF7, in the experiment with M14, in the experiment on SK-OV-3 and in the experiment with MDA-MB-231 was > 100 µM (inactive) in each case. In addition, the GI50 in the experiment with HL-60, in the experiment with CCRF-CEM, in the experiment with Hs-578T, with NCI/ADR-RES, in the experiment on SR and in the experiment on SK-MEL-2 was > 100 µM (inactive) in each case. Moreover, the GI50 in the experiment on NCI-H460 and with SK-MEL-28 was > 100 µM (inactive) each time.

For the molecule `CC(=O)OC(C)[C@@H](NC(=O)[C@@H](CC(C)C)N(C)C(=O)[C@@H]1CCCN1C(=O)C(C)O)C(=O)OCc1ccccc1` (stereo not given in full) (H-[ξLac]P[dNMeL][dThr(3ξ)](Ac)-OBn), the GI50 is > 100 µM (inactive) with IGROV-1; > 100 µM (inactive) with U-251; > 100 µM (inactive) in the experiment on BT-549; 62.4 µM (inactive) in the experiment on OVCAR-4; > 100 µM (inactive) in the experiment with RPMI-8226; > 100 µM (inactive) in the experiment with SF-539. The GI50 in the experiment on MDA-N, with OVCAR-3, with MCF7, in the experiment on M14, in the experiment with SK-OV-3 and in the experiment on MDA-MB-231 was > 100 µM (inactive) in each case. For the same molecule, the GI50 in the experiment with HL-60, in the experiment on CCRF-CEM, with Hs-578T, with NCI/ADR-RES, in the experiment with SR and in the experiment on SK-MEL-2 was > 100 µM (inactive) each time. The GI50 in the experiment with NCI-H460 and with SK-MEL-28 was > 100 µM (inactive) each time.
